Results as given in patent US12331048B2, “Pyrido-[3,4-d]pyridazine amine derivatives useful as NLRP3 inhibitors” (Ventus Therapeutics U.S., Inc., priority 2022, dated 2025).
Converted amounts (≈) assume the structure as drawn. Like-named read-outs stand apart in the source and are kept apart here.

Assays:
[1] = target: T1, NLRP3 (Homo sapiens, UniProt Q96P20); test: Human whole blood (hWB) NLRP3 assay; type: cell-based; details: LPS priming 1 μg/ml, ATP activation, read-out: hWB IC50 (raw activity data)
T1 construct: endogenous in cells
T1 sequence (Q96P20 whole entry): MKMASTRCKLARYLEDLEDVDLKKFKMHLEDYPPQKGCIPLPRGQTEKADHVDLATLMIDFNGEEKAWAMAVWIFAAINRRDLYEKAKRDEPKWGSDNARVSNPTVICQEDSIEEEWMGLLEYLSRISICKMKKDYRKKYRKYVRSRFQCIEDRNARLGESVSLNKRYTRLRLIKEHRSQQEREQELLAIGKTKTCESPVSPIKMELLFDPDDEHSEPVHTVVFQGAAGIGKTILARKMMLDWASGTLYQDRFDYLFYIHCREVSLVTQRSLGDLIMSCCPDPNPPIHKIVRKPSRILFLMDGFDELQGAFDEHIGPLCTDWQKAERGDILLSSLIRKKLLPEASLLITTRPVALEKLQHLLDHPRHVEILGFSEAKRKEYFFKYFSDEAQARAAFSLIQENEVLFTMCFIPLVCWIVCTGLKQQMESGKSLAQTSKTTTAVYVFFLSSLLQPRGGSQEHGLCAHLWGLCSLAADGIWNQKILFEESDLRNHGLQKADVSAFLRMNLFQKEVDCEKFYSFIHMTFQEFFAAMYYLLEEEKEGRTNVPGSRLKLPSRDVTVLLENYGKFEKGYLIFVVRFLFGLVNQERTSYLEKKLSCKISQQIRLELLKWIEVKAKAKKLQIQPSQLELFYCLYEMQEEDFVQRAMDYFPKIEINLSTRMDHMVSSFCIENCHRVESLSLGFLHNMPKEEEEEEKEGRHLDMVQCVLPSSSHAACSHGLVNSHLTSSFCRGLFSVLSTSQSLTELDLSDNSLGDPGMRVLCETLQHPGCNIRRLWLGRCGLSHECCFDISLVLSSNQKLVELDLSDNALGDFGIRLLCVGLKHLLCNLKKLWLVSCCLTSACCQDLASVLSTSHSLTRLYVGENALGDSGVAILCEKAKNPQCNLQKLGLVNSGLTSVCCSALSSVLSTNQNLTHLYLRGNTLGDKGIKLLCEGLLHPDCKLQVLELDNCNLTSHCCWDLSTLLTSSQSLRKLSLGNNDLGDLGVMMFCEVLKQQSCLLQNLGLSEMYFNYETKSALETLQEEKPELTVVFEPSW
Experimental: Heparin lithium coated tubes were used to collect blood from volunteers. Blood samples were distributed on 96 well plates using 90 μl per well. Priming was performed by adding 5 μl of LPS (O26:B6; Sigma L-2654) at a final concentration of 1 μg/ml for 4.5 hours in a humidified incubator with 37° C., 5% CO2. Thirty minutes prior to NLRP3 activation, 5 μl of a 20× compound solution or vehicle (2% DMSO) was added to each well and plates were incubated on a shaker (450 rpm) in a humidified incubator with 37° C., 5% CO2. Activation was then performed by adding 3.3 μl of a 31×ATP solution per well. At the end of the 30 minutes stimulation, the plates were centrifuged (800 g, 10 min. room temperature) and the plasma from each well was frozen at −80° C. […] levels in the supernatant were analyzed using a mesoscale discovery assay (MSD K151TUK) according to the manufacturers' instructions. Human whole blood was drawn from healthy volunteers after obtaining written informed consent.
Table D assigns each compound a code for potency in the human whole blood (hWB) NLRP3 Assay: A or B. According to the code. […] The corresponding raw activity data is also included.

[2] = Brain levels (kp and kpu,u) after oral administration; type: in vivo, CDI mice; details: mice, 20 mpk PO; for Kp at 24 h / Kpu,u (unbound brain-to-plasma ratio): CDI, mouse, brain / plasma, po, 20 mg/kg; for Kpu,u (unbound brain-to-plasma ratio) / kpu,u (code): kp corrected with mouse plasma protein binding and mouse brain homogenate binding
Experimental: The in vivo total brain to plasma ratio was assessed in CDI mice after oral administration of the compound. Blood was collected at several timepoints up to 24 h, and transferred into plastic micro centrifuge tubes with EDTA-K2 as anticoagulant. Blood samples were centrifuged at 4000 g for 5 minutes at 4° C. to obtain plasma, then immediately frozen and stored at −75±15° C. prior to analysis. Animals were terminally anaesthetized with a rising concentration of CO2 gas at about 1 minute. At selected timepoints, whole brains were removed from the skull, rinsed in cold PBS to remove blood, dried with clean gauze, then frozen in liquid nitrogen and kept at −75±15° C. before analysis. At the time of analysis, brain samples were homogenized with PBS by tissue weight (g) to PBS volume (mL) ratio 1:3. Plasma and brain drug levels were quantified by LC/MS/MS on a AB Sciex Triple Quad 5500+ instrument, after separation on a HALO 160A ES-C18, 2.7 μm 2.1-50 mm column. Quantitation was performed using a calibration curve prepared in blank plasma or blank brain homogenate. The software WinNonlin (Phoenix™) was used for pharmacokinetic analysis from the concentrations versus time data, including the AUCinf and AUClast. The Kp ratio (total brain concentration over total plasma concentration) was calculated as (AUCtot,br)/(AUCtot,pl).
The unbound brain exposure was assessed as Kpuu, which is the free brain/free plasma concentration ratio (Cu,br/Cu,pl). The Cu,br/Cu,pl ratios were obtained from in vivo total brain to plasma ratios (Ctot,br/Ctot,pl) by using in vitro determined Fu,br and Fu,pl.
Plasma protein binding and brain homogenate protein binding were measured by equilibrium dialysis in a HTDialysis plate. The dialysis membranes were soaked in ultrapure water for 60 minutes to separate strips, then in 20% ethanol for 20 minutes, finally in dialysis buffer for 20 minutes. The dialysis set up was assembled according to the manufacturer's instruction. Each cell received 150 μL of plasma or brain homogenate spiked with 1 mM of compound, and dialyzed against an equal volume of dialysis buffer (PBS). The dialysis plate was sealed and incubated in an incubator at 37° C. with 5% CO2 at 100 rpm for 6 hours. At the end of incubation, compound concentration was measured in both chambers by LC-MS/MS on a Triple Quad™ 5500 from AB Inc after separation on a XSelect Hss T3 2.5μ (2.1×30 mm) column. Free fraction (Fu) was calculated as (Peak Area Ratio buffer chamber/Peak Area Ratio plasma chamber).
Kpuu was calculated as (AUCtot,br×Fu,br)/(AUCtot,pl×Fu,pl).
The below table also assigns each compound a code for kp and kpu,u values: A or B. According to the code. A represents a value of >0.3 and B represents a value of ≤0.3. […] The kpu,u was then calculated upon correcting this kp value with mouse plasma protein binding and mouse brain homogenates binding. A Kpu,u value >0.3 is brain penetrant, and Kpu,u value less than or equal to 0.3 is not brain penetrant. N.D.=not determined. The corresponding raw kp and kpu,u data is also included.

[3] = Solubility in phosphate buffered solution (PBS, pH 7.4); type: physicochemical; details: for solubility at 2 h: phosphate buffered solution (PBS), aqueous buffer, kinetic from dmso stock; for increase in solubility (PBS, pH 7.4) compared to Comparative Example 3: relative to Comparative Example 3 (6.7 uM)
Experimental: In additional embodiments, the solubility of compounds of the instant disclosure may be determined following known procedures, such as described in Alsenz and Kansy, Advanced Drug Delivery Reviews (2007) 59:546-567, and Wang et al. J Mass Spectrom. (2000) 35:71-76. For example, the kinetic solubility in physiologically relevant media, such as phosphate buffered solution (PBS, pH 7.4) or simulated gastric fluid (SGF), may be measured using serial dilution and two hour incubation period, followed by filtration, and reported in μM by LC-MS/MS. Thermodynamic solubility in physiologically relevant media may be measured by LC-MS/MS, after a twenty-four hour incubation, followed by filtration, and reported in mg/mL. Optimized solubility may be beneficial for manufacturing and further processing of the compound. Furthermore, optimized solubility allows for a more efficient in vitro analysis of the compound, including data collection around the compound's safety, drug-drug interactions, potency, selectivity, metabolism, and permeability. […]

[4] = whole brain AUC over 24 h divided by plasma AUC, read-out: kp (code)
[5] = whole brain AUC over 24 h divided by plasma AUC, read-out: kp (raw)

Row | IC50 [1] | Kp at 24 h [2, 4] | Kp at 24 h [2, 5] | Kpu,u (unbound brain-to-plasma ratio) [2] | kpu,u (code) [2] | solubility at 2 h [3] | increase in solubility (PBS, pH 7.4) compared to Comparative Example 3 [3] | kp (code) ([2]; whole brain AUC over 24 h divided by plasma AUC) | Compound
1 | 900 nM | ≤ 0.3 | 0.1 | 0.17 | B (B represents a value of ≤0.3) | 280 µM (≈ 108 µg/mL) | 42 fold | – | Cc1cc(O)c(-c2nnc(N[C@H]3COC(C)(C)C3)c3cnccc23)c(Cl)c1 (single isomer, unassigned) [Compound 26*]
2 | 260 nM | > 0.3 | 0.4 | 0.63 | A (A represents a value of >0.3) | 45 µM (≈ 18.1 µg/mL) | 7 fold | A (A represents a value of >0.3) | CC1(C)C[C@H](Nc2nnc(-c3ccc(OC(F)F)cc3O)c3ccncc23)CO1 (single isomer, unassigned) [Compound 9*]
3 | 330 nM | ≤ 0.3 | 0.05 | – | – | 290 µM (≈ 106 µg/mL) | 43 fold | – | Cc1cc(C)c(-c2nnc(N[C@H]3COC(C)(C)C3)c3cnccc23)c(O)c1 (single isomer, unassigned) [Compound 24*]
4 | 220 nM | > 0.3 | 0.44 | 0.94 | A (A represents a value of >0.3) | 180 µM (≈ 63.1 µg/mL) | 27 fold | – | Cc1ccc(-c2nnc(N[C@H]3COC(C)(C)C3)c3cnccc23)c(O)c1 [Compound 5, (R)-2-(4-((5,5-dimethyltetrahydrofuran-3-yl)amino)pyrido[3,4-d]pyridazin-1-yl)-5-methylphenol]
